# Assay results from patent US11951094B2, “TLR2 modulator compounds, pharmaceutical compositions and uses thereof” (Axial Therapeutics, Inc., priority 2020, dated 2024).
# Target: TLR2 (Homo sapiens, UniProt O60603)
# Assay: TLR2 agonist screening assay, HEK-Blue TLR2 reporter cell line (NF-kB-driven SEAP, absorbance at 600 nm)
# Format: cell-based
# Set-up: host or cells: HEK-293 (HEK-Blue TLR2 reporter cell line)
# Conditions: HEK-Blue TLR2 reporter cells, agonist mode; average of all runs (Table 4)
# Method in brief: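 TLR2 engagement is scored through NF-kB-induced secreted alkaline phosphatase in HEK-293 cells, detected by substrate colour change at 600 nm after overnight compound treatment at 1% final DMSO. Potency is expressed as EC50.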
# Sequence of TLR2 (O60603 21-784): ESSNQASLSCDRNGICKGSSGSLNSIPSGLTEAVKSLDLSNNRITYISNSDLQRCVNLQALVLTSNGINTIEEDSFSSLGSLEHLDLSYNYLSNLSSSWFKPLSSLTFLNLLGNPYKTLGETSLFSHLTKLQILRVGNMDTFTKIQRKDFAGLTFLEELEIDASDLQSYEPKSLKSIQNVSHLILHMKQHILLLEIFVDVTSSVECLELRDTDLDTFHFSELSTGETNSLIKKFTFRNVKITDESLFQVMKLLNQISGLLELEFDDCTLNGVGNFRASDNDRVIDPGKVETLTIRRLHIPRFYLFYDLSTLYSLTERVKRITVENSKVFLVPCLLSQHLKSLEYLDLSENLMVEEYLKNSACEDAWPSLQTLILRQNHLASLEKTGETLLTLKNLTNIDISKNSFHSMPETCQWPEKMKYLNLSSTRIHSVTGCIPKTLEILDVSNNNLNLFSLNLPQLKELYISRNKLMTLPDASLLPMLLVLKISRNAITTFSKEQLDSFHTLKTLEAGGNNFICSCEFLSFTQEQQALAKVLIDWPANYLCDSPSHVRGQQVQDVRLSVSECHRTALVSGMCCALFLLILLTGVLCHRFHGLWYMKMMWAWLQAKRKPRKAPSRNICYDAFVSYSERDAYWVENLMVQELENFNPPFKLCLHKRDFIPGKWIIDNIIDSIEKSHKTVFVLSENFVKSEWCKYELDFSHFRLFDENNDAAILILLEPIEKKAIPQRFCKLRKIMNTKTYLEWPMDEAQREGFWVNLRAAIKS
row,EC50,Structure (SMILES)
1,0.0001 to 0.05 µM,"CCCCCCNC(=O)[C@H](CNC(=O)c1ccc(C(=O)N2C[C@@H](C(=O)N[C@H]3C[C@@H]3c3ccccc3)[C@H](C(=O)N[C@H]3C[C@@H]3c3ccccc3)C2)cc1)NC(=O)CCc1ccc(F)cc1 [Compound 139, (3S,4S)-1-(4-(((S)-2-(3-(4-fluorophenyl)propanamido)-3-(hexylamino)-3-oxopropyl)carbamoyl)benzoyl)-N3,N4-bis ((1S,2R)-2-phenylcyclopropyl) pyrrolidine-3,4-dicarboxamide]"
2,0.0001 to 0.05 µM,"CCCCCCCCNC(=O)[C@H](CNC(=O)c1ccc(C(=O)N2C[C@@H](C(=O)N[C@H]3C[C@@H]3c3ccccc3)[C@H](C(=O)N[C@H]3C[C@@H]3c3ccccc3)C2)cc1)NC(=O)CCCCCC [Compound 141, (3S,4S)-1-(4-(((S)-2-heptanamido-3-(octylamino)-3-oxopropyl)carbamoyl)benzoyl)-N3,N4-bis((1S,2R)-2-phenylcyclopropyl)pyrrolidine-3,4-dicarboxamide]"
3,> 1 µM,"CCCCCCCCCCCCCCNC(=O)C1CCN(Cc2ccc(C(=O)N3C[C@@H](C(=O)N[C@H]4C[C@@H]4c4ccccc4)[C@H](C(=O)N[C@H]4C[C@@H]4c4ccccc4)C3)cc2)C1=O (stereo partly drawn) [Compound 142, (3S,4S)-1-(4-((2-oxo-3-(tetradecylcarbamoyl)pyrrolidin-1-yl)methyl)benzoyl)-N3,N4-bis((1S,2R)-2-phenylcyclopropyl)pyrrolidine-3,4-dicarboxamide]"
4,0.051 to 0.35 µM,"CCCCCCC(=O)N[C@@H](CNC(=O)c1ccc(C(=O)N2C[C@@H](C(=O)N[C@H]3C[C@@H]3c3ccccc3)[C@H](C(=O)N[C@H]3C[C@@H]3c3ccccc3)C2)cc1)C(=O)N[C@H]1C[C@@H]1c1ccccc1 [Compound 143, (3S,4S)-1-(4-(((S)-2-heptanamido-3-oxo-3-(((1S,2R)-2-phenylcyclopropyl)amino)propyl)carbamoyl)benzoyl)-N3,N4-bis((1S,2R)-2-phenylcyclopropyl)pyrrolidine-3,4-dicarboxamide]"
5,0.351 to 1 µM,"O=C(N[C@H]1C[C@@H]1c1ccccc1)[C@@H]1CN(C(=O)C23CCC(C(=O)N4C[C@@H](C(=O)N[C@H]5C[C@@H]5c5ccccc5)[C@H](C(=O)N[C@H]5C[C@@H]5c5ccccc5)C4)(C2)C3)C[C@H]1C(=O)N[C@H]1C[C@@H]1c1ccccc1 [Compound 144, (3S,3'S,4S,4'S)-1,1′-(bicyclo[2.1.1]hexane-1,4-dicarbonyl)bis(N3,N4-bis((1S,2R)-2-phenylcyclopropyl)pyrrolidine-3,4-dicarboxamide)]"
6,> 1 µM,"CCCCCCCCCCCCCCN1C(=O)CNC(=O)[C@@H]1CNC(=O)c1ccc(C(=O)N2C[C@@H](C(=O)N[C@H]3C[C@@H]3c3ccccc3)[C@H](C(=O)N[C@H]3C[C@@H]3c3ccccc3)C2)cc1 [Compound 147, (3S,4S)-1-(4-((((S)-3,6-dioxo-1-tetradecylpiperazin-2-yl)methyl)carbamoyl)benzoyl)-N3,N4-bis((1S,2R)-2-phenylcyclopropyl)pyrrolidine-3,4-dicarboxamide]"
7,0.051 to 0.35 µM,"CCCCCCCCCCCCCCNC(=O)[C@H]1CN(C(=O)c2ccc(C(=O)N3C[C@@H](C(=O)N[C@H]4C[C@@H]4c4ccccc4)[C@H](C(=O)N[C@H]4C[C@@H]4c4ccccc4)C3)cc2)CCO1 [Compound 150, (3S,4S)—N3,N4-bis ((1S,2R)-2-phenylcyclopropyl)-1-(4-((R)-2-(tetradecylcarbamoyl)morpholine-4-carbonyl)benzoyl) pyrrolidine-3,4-dicarboxamide]"
8,> 1 µM,"CCCCCCCCCCCCCCNC(=O)[C@@H]1CN(C(=O)c2ccc(C(=O)N3C[C@@H](C(=O)N[C@H]4C[C@@H]4c4ccccc4)[C@H](C(=O)N[C@H]4C[C@@H]4c4ccccc4)C3)cc2)CCO1 [Compound 151, (3S,4S)—N3,N4-bis((1S,2R)-2-phenylcyclopropyl)-1-(4-((S)-2-(tetradecylcarbamoyl)morpholine-4-carbonyl)benzoyl)pyrrolidine-3,4-dicarboxamide]"
9,> 1 µM,"CCCCCCCCCCCCCCC(=O)N1CCC[C@@H](NC(=O)c2ccc(C(=O)N3C[C@@H](C(=O)N[C@H]4C[C@@H]4c4ccccc4)[C@H](C(=O)N[C@H]4C[C@@H]4c4ccccc4)C3)cc2)C1 [Compound 153, (3S,4S)-1-(4-(((R)-1-pentadecanoylpiperidin-3-yl)carbamoyl)benzoyl)-N3,N4-bis((1S,2R)-2-phenylcyclopropyl)pyrrolidine-3,4-dicarboxamide]"
10,0.351 to 1 µM,"CCCCCCCCCCCCCCC(=O)N[C@@H]1CN(C(=O)c2ccc(C(=O)N3C[C@@H](C(=O)N[C@H]4C[C@@H]4c4ccccc4)[C@H](C(=O)N[C@H]4C[C@@H]4c4ccccc4)C3)cc2)C[C@H]1OC [Compound 154, (3S,4S)-1-(4-((3R,4R)-3-methoxy-4-pentadecanamidopyrrolidine-1-carbonyl)benzoyl)-N3,N4-bis((1S,2R)-2-phenylcyclopropyl) pyrrolidine-3,4-dicarboxamide]"
11,> 1 µM,"CCCCCCCO[C@@H]1CN(C(=O)c2ccc(C(=O)N3C[C@@H](C(=O)N[C@H]4C[C@@H]4c4ccccc4)[C@H](C(=O)N[C@H]4C[C@@H]4c4ccccc4)C3)cc2)C[C@H]1NC(=O)CCCCCC [Compound 155, (3S,4S)-1-(4-((3R,4R)-3-heptanamido-4-(heptyloxy)pyrrolidine-1-carbonyl)benzoyl)-N3,N4-bis((1S,2R)-2-phenylcyclopropyl)pyrrolidine-3,4-dicarboxamide]"
12,0.051 to 0.35 µM,"CCCCCCCO[C@H]1CN(C(=O)c2ccc(C(=O)N3C[C@@H](C(=O)N[C@H]4C[C@@H]4c4ccccc4)[C@H](C(=O)N[C@H]4C[C@@H]4c4ccccc4)C3)cc2)C[C@@H]1NC(=O)NCCCCC [Compound 156, (3S,4S)-1-(4-((3S,4S)-3-(heptyloxy)-4-(3-pentylureido)pyrrolidine-1-carbonyl)benzoyl)-N3,N4-bis((1S,2R)-2-phenylcyclopropyl)pyrrolidine-3,4-dicarboxamide]"
13,0.351 to 1 µM,"CCCCCCCCCCCCCCC(=O)N[C@@H]1CN(C(=O)c2ccc(C(=O)N3C[C@@H](C(=O)N[C@H]4C[C@@H]4c4ccccc4)[C@H](C(=O)N[C@H]4C[C@@H]4c4ccccc4)C3)cc2)C[C@H]1O [Compound 157, (3S,4S)-1-(4-((3R,4R)-3-hydroxy-4-pentadecanamidopyrrolidine-1-carbonyl)benzoyl)-N3,N4-bis ((1S,2R)-2-phenylcyclopropyl) pyrrolidine-3,4-dicarboxamide]"
14,> 1 µM,"CCCCCCNC(=O)[C@H]1CN(C(c2ccc(C(=O)N3C[C@@H](C(=O)N[C@H]4C[C@@H]4c4ccccc4)[C@H](C(=O)N[C@H]4C[C@@H]4c4ccccc4)C3)cc2)C(F)(F)F)CCN1C(=O)CCCCCC (stereo partly drawn) [Compound 158, (3S,4S)—N3,N4-bis((1S,2R)-2-phenylcyclopropyl)-1-(4-(2,2,2-trifluoro-1-((R)-4-heptanoyl-3-(hexylcarbamoyl)piperazin-1-yl)ethyl)benzoyl)pyrrolidine-3,4-dicarboxamide]"
15,0.351 to 1 µM,CCCCCCN1C(=O)[C@H](CCCCC)NC(=O)[C@@H]1CNC(=O)c1ccc(C(=O)N2C[C@@H](C(=O)N[C@H]3C[C@@H]3c3ccccc3)[C@H](C(=O)N[C@H]3C[C@@H]3c3ccccc3)C2)cc1 [Compound 159]
